From US20140088000A1, “Leptin Rescues Neurons from Alzheimer's Disease Related Pathways Triggered by Lipid Burden” (Neurotez, Inc., priority 2012, published 2014)

What was measured:
[1] = mice having mutations on the ob gene, administration of leptin; cited from earlier work
[2] = transgenic model of AD; cited from earlier work
sirtuins (SIRT) = assay: SIRT (total sirtuin) activity assay in lysates of treated RA-SY5Y cells (nicotinamide-sensitive deacetylase activity); assay type: cell-based, human; details: Leptin 100 ng/mL, 6 h, with ceramide, cholesterol or oleic acid, FIG. 2B
Method: (§1) RA-SY5Y were treated with Leptin (100 ng/ml) in the presence of ceramide (25 μM), cholesterol (27.5 μg/mL), oleic acid (30 μg/mL) or vehicle (MβCD—675 μg/mL; or DMSO—0.125%) for 6 h, and then harvested by scraping. Preparation of whole cell lysates from cell pellets was performed as described previously (32).
“Total sirtuin”, hereafter termed “SIRT’, activity in cell lysates was determined using the HDAC Fluorimetric Cellular Activity Assay Kit (Enzo Life Sciences; Plymouth Meeting, Pa.), according to manufacturer's specified guidelines. Briefly, SIRT activity is defined as nicotinamide-sensitive deacetylase (class III HDAC) activity in cell lysates. 5 mM nicotinamide was identified by the manufacturer as a dose in which there was no further reduction in deacetylase activity upon increasing concentration. RA-SY5Y cell lysates were incubated in the presence or absence of 5 mM nicotinamide, and SIRT activity determined by adding the Flour de Lys Substrate for deacetylation followed by exposure to the Fluor de Lys Developer to generate a fluorescent signal for detection using a fluorimeter (EX−350-380 nm/Em440-460 nm). Normalized SIRT activity was measured in units of fluorescence intensity (Fi) and defined as: (Filysate−Filysate+nicotinamide)/μg proteinlysate. […]

RA-SY5Y cells = assay: Cell viability assay (Cell-Titer Blue) during lipid/metabolic insult; assay type: cell-based, human
Method: The human neuroblastoma cell line, SH-SY5Y, was purchased from ATCC. Cell culture was performed according to manufacturer's specific guidelines. Cells were propagated in MEM containing 10% FBS. Neuronal differentiation was performed as described previously (32).
RA-SY5Y, at 2×10^4 cells/well, were seeded in 96-well microplates and treated for 48 h with a range of concentrations of MβCD, DMSO, ceramide, cholesterol or oleic acid to determine effective doses for 50-70% viability (data not shown), or in the presence of a range of concentrations of Leptin to determine effective doses to prevent cell death. Viability was assessed using the Cell-Titer Blue Viability Assay (Promega) by adding 20 μL of the reagent to each well for 4 h, and plates read by a microplate reader with fluorescence capabilities at Ex530-570 nm/Em580-620 nm. Viability was determined using a standard curve of known cell number and plotted as a percent of non-treated or vehicle control.
Doses of the lipids which decreased neuronal viability by 25-50% (Ceramide—25 μM; Cholesterol—27.5 μg/mL and Oleic Acid—30 μg/mL) after 18 h treatment (data not shown) were used to determine whether co-treatment with Leptin, an important modulator of lipid homeostasis, could attenuate the toxic effects of the insults (FIG. 1). RA-SY 5Y were treated for 18 h with either a low (10 ng/mL; gray bars) or moderate (100 ng/mL; black bars) dose of Leptin or control (white bars) in the presence or absence of ceramide, cholesterol or oleic acid, and cell viability measured. All lipid insults induced a significant (p<0.05) decrease in cell viability in the range of 35±15% when treated with control alone.

Aβ(1-40) = assay: Extracellular Aβ(1-40) ELISA in culture media of SY5Y cells stably over-expressing human APP751; assay type: cell-based; details: Leptin 100 ng/mL, 18 h, SY5Y APP751, with ceramide, cholesterol or oleic acid; FIG. 4
Method: To generate SY5Y stably over-expressing amyloid precursor protein (APP), cells were transfected with a mammalian expression vector encoding the 751 amino acid isoform of human APP (APP751—Accession #NM 201413) (Origene Technologies; Rockville, Md.) using the FuOENE HD transfection reagent, according to manufacturer's specific instructions (Promega; Madison, Wis.). Briefly, cells were transiently transfected with APP751 or vehicle for 48 h and then switched into selection medium containing a concentration range of the antibiotic 0418 (100-600 μg/mL) to determine the optimal dose for stable selection. Selection media was changed every 3 days to remove non-viable cells. After 3 weeks, 200 μg/mL 0418 yielded distinct colonies while all vehicle-transfected cells were non-viable. […] Aβ(1-40) levels in cell culture media from SY5YAPP751 cells treated for 18 h with the aforementioned metabolic insults in the presence or absence of Leptin, were determined using the Human βAmyloid 1-40 ELISA kit (Invitrogen; Carlsbad, Calif.), and phospho- and total tau levels in RASY5Y lysates were determined using the Human Tau pSer396, pThr231 and Total Tau ELISA kits (Invitrogen) according to manufacturer's specific instructions. Aβ(1-40), phosho- and total tau levels were calculated from a standard curve developed with OD at 450 nm using 8 serial dilutions of known concentration. […]

Aβ = details: neurons; cited from earlier work
[3] = test system: AMP-activated protein kinase (AMPK); assay: AMPK activity assay in lysates of treated RA-SY5Y cells (CycLex kit, Compound C-sensitive kinase activity); assay type: cell-based, human; details: 6 h, FIG. 2A
Method: as §1
AMPK activity in RA-SY5Y cell lysates was determined using the CycLex AMPK Kinase Assay Kit (MBL International; Woburn, Mass.), as previously described (33, 34). Briefly, “relative AMPK activity”, hereafter referred to as “AMPK activity”, is defined as Compound C-sensitive protein kinase activity in cell lysates. […] Lysates were incubated in the presence or absence of 10 μM Compound C, and protein kinase activity determined by measuring phosphorylation of the Insulin Receptor Substrate-I (IRS-1) through immunoassay and conversion of a chromogenic substrate at an absorbance of 450 nm (Ai50). […]
We have previously shown that Leptin regulates AD pathways via activation of the cellular energy sensors, AMP-activated protein kinase (AMPK) and the sirtuins (SIRT) in neuronal cells (35, 36). To this end, we determined whether Leptin has the ability to attenuate these effects on cellular energetics in an acute model of metabolic stress (FIG. 2). […]

tau = assay: Phospho-tau (pThr231, pSer396) and total tau ELISA in RA-SY5Y lysates; assay type: cell-based, human; details: 6 h, FIG. 3; for effect of lipid insult on tau phosphorylation (pTau231, pTau396): no Leptin, normalized to total tau
Method: as §1
Aβ(1-40) levels in cell culture media from SY5YAPP751 cells treated for 18 h with the aforementioned metabolic insults in the presence or absence of Leptin, were determined using the Human βAmyloid 1-40 ELISA kit (Invitrogen; Carlsbad, Calif.), and phospho- and total tau levels in RASY5Y lysates were determined using the Human Tau pSer396, pThr231 and Total Tau ELISA kits (Invitrogen) according to manufacturer's specific instructions. Aβ(1-40), phosho- and total tau levels were calculated from a standard curve developed with OD at 450 nm using 8 serial dilutions of known concentration.
Metabolic stress has been linked to the activation of AD pathological pathways, with lipids known to play an important role (21-23). We therefore investigated the extent to which lipids can induce hyperphosphorylation of tau (FIG. 3) and AP production (FIG. 4) in neuronal cells, and determined whether Leptin could prevent these effects. Utilizing similar lipid doses as previous experiments, RA-SY5Y were treated for 6 h with Leptin (100 ng/mL) or control in the presence or absence of ceramide, cholesterol or oleic acid, and phosphorylation of tau at two different epitopes, pTau231 (FIG. 3A) or pTau396 (FIG. 3B), as well as total tau measured by ELISA.

Compound | reduction of body weight [1] [%] | cognitive performance [2] | tau phosphorylation and Aβ production [2] | SIRT activity under lipid insult with Leptin (sirtuins (SIRT)) | cell viability under lipid insult, low dose Leptin (RA-SY5Y cells; Leptin 10 ng/mL, 18 h, with ceramide, cholesterol or oleic acid, FIG. 1) | cell viability under lipid insult, moderate dose Leptin (RA-SY5Y cells; Leptin 100 ng/mL, 18 h, with ceramide, cholesterol or oleic acid, FIG. 1) | cell viability under lipid insult, high dose Leptin (RA-SY5Y cells; Leptin 1000 ng/mL, versus 100 ng/mL group, data not shown) | extracellular Aβ(1-40) levels under lipid insult with Leptin (Aβ(1-40)) | amount of Aβ secreted into the medium (Aβ) | AMPK activity under lipid insult with Leptin ([3]; Leptin 100 ng/mL, with ceramide, cholesterol or oleic acid) | tau hyperphosphorylation under lipid insult with Leptin (tau; Leptin 100 ng/mL simultaneous treatment, oleic acid insult (far right group)) | effect of lipid insult on AMPK activity ([3]; cholesterol 27.5 μg/mL, no Leptin) | effect of lipid insult on tau phosphorylation (pTau231, pTau396) (tau)
Leptin: recombinant human Leptin purchased from Sigma-Aldrich; adipocyte-derived helical protein hormone | 30 | improves cognitive performance | reduces both tau phosphorylation and Aβ production | significantly (p<0.05) boost both AMPK and SIRT activity in response to all lipid insults, with the exception of ceramide for SIRT | significantly (p<0.05) improve viability only in response to the cholesterol insult | significantly (p<0.05) improved viability in response to all challenges | not significantly (p>0.05) different from the moderate group's viability | significantly (p<0.05) reduced Aβ(1-40) levels as similar to control | reduces the amount of Aβ secreted into the medium in a time- and dose-dependent fashion | significantly (p<0.05) boost both AMPK and SIRT activity in response to all lipid insults | significantly (p<0.05) prevented this hyperphosphorylation | – | –
CC(C)CCC[C@@H](C)[C@H]1CC[C@H]2[C@@H]3CC=C4C[C@@H](O)CC[C@]4(C)[C@H]3CC[C@]12C [Cholesterol, cholesterol, reference compound] | – | – | – | – | – | – | – | – | – | – | – | significantly (p<0.05) suppress | induced significant (p<0.05) increases in tau phosphorylation at either epitope
CCCCCCCC/C=C\CCCCCCCC(=O)O [Oleic Acid, oleic acid] | – | – | – | – | – | – | – | – | – | – | – | – | induced significant (p<0.05) increases in tau phosphorylation at either epitope
